Key:
[1] = system: L-type Ca2+ channels in GH3 cells; experiment: Inhibition of L-type calcium flux in GH3 cells (Indo-1 fluorescence); format: cell-based, rat
Method: Measurement of L-type Ca^2+ Channel Blocking Potencies of Compounds in GH3 Cells Using the Fluorescent Ca^2+ Indicator Indo-1
The GH3 rat pituitary cell line was obtained from the American Type Culture Collection (Rockville, Md.). Cells were grown in Ham's F-10 medium with 15% horse serum, 2.5% fetal bovine serum (FBS), and […] (Gibco, Gaithersburg, Md.). Confluent cells were detached using 0.5 mM EDTA and loaded with 5 μM Indo-acetoxymethyl ester (Molecular Probes, Eugene, Oreg.) in 1% bovine serum albumin (BSA) containing assay buffer (10 mM HEPES/Tris pH 7.4 in Hank's Balanced Salt Solution without bicarbonate or phenol red) for 60 minutes at 30° C. Loaded cells were washed twice, resuspended (approx. 10^7 cells/mL) in assay buffer containing 0.5% BSA, and kept on ice until use (<3 hrs). Different concentrations of the test compounds (60 μL in dimethyl sulfoxide) or controls were added to 5.94 mL of assay buffer containing approximately 3×10^6 loaded cells, and the samples were incubated for 10 minutes at 30° C. After incubation, samples were aliquoted into 3 cuvettes, and their fluorescence was measured with a Photon Technology International (PTI, South Brunswick, N.J.) Model RF-F3004 spectrofluorometer thermostatted at 30° C. Excitation was set at 350 nm and dual emissions were recorded at 400 and 490 nm. Basal emission signals were acquired for 20 seconds, followed by the depolarization of cells by the addition of 200 μL of a stimulation solution (1 M KCl, 68 mM CaCl2) to the stirred cuvette. Emission signals were acquired for an additional 50 seconds after depolarization. Ratio of emission signals (F400 nm/F490 nm), which is proportional to intracellular Ca^2+ concentration, was plotted against time, and the difference between the emission ratio 50 seconds after stimulation and its basal value (before stimulation) was determined. Values obtained in this way were considered as measures of depolarization-induced Ca-flux through L-type channels and plotted as a function of drug concentration. IC50 values of test compounds were calculated by fitting a four-parameter logistic function to the data using the least squares method.

| melting point [°C] | SMILES | IC50 [1] [µM] |
| --- | --- | --- |
| – | CC(C)C[C@H](NC(=O)N1CCCCCC1)C(=O)N[C@@H](Cc1ccc(OCc2ccccc2)cc1)C(=O)OC(C)(C)C [Example 1] | 4.48 |
| – | CC(C)(C)OC(=O)[C@H](Cc1ccc(OCc2ccccc2)cc1)NC(=O)[C@H](Cc1ccccc1)NC(=O)N1CCCCCC1 [Example 16] | 4.3 |
| 120 to 122 | CC(C)C[C@H](NC(=O)N1CCCCCC1)C(=O)N[C@@H](Cc1ccc(C#CC2(O)CCCCC2)cc1)C(=O)NC(C)(C)C [Example 138, [S-(R*,R*)]-Azepane-1-carboxylic acid (1-({-tert-butylcarbamoyl-2-[4-(1-hydroxy-cyclohexylethynyl)-phenyl]-ethylcarbamoyl}-3-methyl-butyl)-amide] | – |
| 95 to 96 | CC(C)C[C@H](NC(=O)N1CCCCCC1)C(=O)N[C@@H](Cc1ccc(C=Cc2ccccc2)cc1)C(=O)NC(C)(C)C [Example 141, [S-(R*,R*)]-Azepane-1-carboxylic acid {1-[1-tert-butylcarbamoyl-2-(4-styryl-phenyl)-ethylcarbamoyl]-3-methyl-butyl}-amide] | – |

From patent US6423689B1, “Peptidyl calcium channel blockers” (Warner-Lambert Company, priority 1997, dated 2002)
